These results are taken from patent publication US9409882B2, “Pyridine derivatives” (Hoffmann-La Roche Inc., priority 2012, dated 2016).

The IC50 is the point on the concentration scale where inhibition reaches its midpoint.

Molecules are shown by their SMILES.

One assay deals with human Cat L (Homo sapiens (Human), UniProt P07711). Put plainly: Cathepsin enzyme inhibition assay (fluorogenic peptide substrate), human Cat L. Type of assay: biochemical. The settings on record: human Cat L 1 nM, substrate Z-Val-Val-Arg-AMC 20 μM, pH 6.5. The procedure:
(§1) Cathepsin Enzyme Inhibition Assay
(§2) Enzyme activity is measured by observing the increase in fluorescence intensity caused by cleavage of a peptide substrate containing a fluorophore whose emission is quenched in the intact peptide.
(§3) Assay buffer: 100 mM potassium phosphate pH 6.5, EDTA-Na 5 mM, Triton X-100 0.001%, DTT 5 mM.
(§4) Enzymes (all at 1 nM): human and mouse Cathepsin S, Cat K, Cat B, Cat L.
(§5) Substrate (20 μM): Z-Val-Val-Arg-AMC, except for Cat K which uses Z-Leu-Arg-AMC (both from Bachem).
(§6) AMC=7-Amino-4-Methyl-Coumarin.
(§7) Excitation 360 nm, Emission 465 nm.
(§8) Enzyme is added to the substance dilutions in 96-well microtitre plates and the reaction is started with substrate. […] IC50 are calculated by standard methods.
(§9) Inhibition of human Cat S, mouse Cat S, human Cat K, human Cat B, human Cat L and mouse Cat L have been measured separately.

A further assay concerns the target human Cathepsin S (Homo sapiens (Human), UniProt P25774). In words: Cathepsin enzyme inhibition assay (fluorogenic peptide substrate), human Cat S. Type of assay: biochemical. The settings on record: human Cat S 1 nM, substrate Z-Val-Val-Arg-AMC 20 μM, pH 6.5. The procedure:
as §1, §2, §3, §4, §5, §6, §7, §8, §9

Chain of human Cathepsin S (P25774 115-331): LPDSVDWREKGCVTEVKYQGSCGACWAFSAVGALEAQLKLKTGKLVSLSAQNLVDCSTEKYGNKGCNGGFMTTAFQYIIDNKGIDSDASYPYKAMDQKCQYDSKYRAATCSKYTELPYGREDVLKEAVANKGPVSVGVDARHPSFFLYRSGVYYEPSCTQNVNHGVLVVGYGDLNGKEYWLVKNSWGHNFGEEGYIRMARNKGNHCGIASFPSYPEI
Chain of human Cat L (P07711 114-333): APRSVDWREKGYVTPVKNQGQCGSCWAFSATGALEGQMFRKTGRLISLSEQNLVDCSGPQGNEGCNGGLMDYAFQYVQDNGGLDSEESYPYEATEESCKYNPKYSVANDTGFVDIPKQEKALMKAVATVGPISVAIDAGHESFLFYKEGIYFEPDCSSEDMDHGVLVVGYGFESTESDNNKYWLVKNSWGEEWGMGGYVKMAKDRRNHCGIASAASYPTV

On to `N#CC1(NC(=O)[C@@H]2C[C@@H](Sc3ccc(C(F)(F)F)cn3)CN2C(=O)C2(c3ncc(Cl)cc3F)CC2)CC1` [Example 20, (2S,4R)-1-[1-(5-Chloro-3-fluoro-pyridin-2-yl)-cyclopropanecarbonyl]-4-(5-trifluoromethyl-pyridin-2-ylsulfanyl)-pyrrolidine-2-carboxylic acid (1-cyano-cyclopropyl)-amide], for which the half-inhibitory concentration (IC50) against human Cat L was 5060 nM; at human Cathepsin S, 393 nM.
In the same order, the values of `N#CC1(NC(=O)[C@@H]2C[C@@H](Sc3ncccc3C(F)(F)F)CN2C(=O)C2(c3ncc(Cl)cc3F)CC2)CC1` [Example 21, (2S,4R)-1-[1-(5-Chloro-3-fluoro-pyridin-2-yl)-cyclopropanecarbonyl]-4-(3-trifluoromethyl-pyridin-2-ylsulfanyl)-pyrrolidine-2-carboxylic acid (1-cyano-cyclopropyl)-amide] are 10000 nM and 275 nM.
On the same counts, the results for `N#CC1(NC(=O)[C@@H]2C[C@@H](S(=O)(=O)c3ccc(Cl)cn3)CN2C(=O)C2(c3ncc(Cl)cc3F)CC2)CC1` [Example 22, (2S,4R)-1-[1-(5-Chloro-3-fluoro-pyridin-2-yl)-cyclopropanecarbonyl]-4-(5-chloropyridine-2-sulfonyl)-pyrrolidine-2-carboxylic acid (1-cyano-cyclopropyl)-amide] are 1970 nM and 3 nM.
In the same order, the values of `Cc1cccc(S(=O)(=O)[C@@H]2C[C@@H](C(=O)NC3(C#N)CC3)N(C(=O)C3(c4ncc(Cl)cc4F)CC3)C2)n1` [Example 23, (2S,4R)-1-[1-(5-Chloro-3-fluoro-pyridin-2-yl)-cyclopropanecarbonyl]-4-(6-methylpyridine-2-sulfonyl)-pyrrolidine-2-carboxylic acid (1-cyano-cyclopropyl)-amide] are 5640 nM and 2.8 nM.
Regarding `N#CC1(NC(=O)[C@@H]2C[C@@H](S(=O)(=O)c3ccc(C(F)(F)F)cn3)CN2C(=O)C2(c3ncc(Cl)cc3F)CC2)CC1` [Example 24, (2S,4R)-1-[1-(5-Chloro-3-fluoro-pyridin-2-yl)-cyclopropanecarbonyl]-4-(5-trifluoromethyl-pyridine-2-sulfonyl)-pyrrolidine-2-carboxylic acid (1-cyano-cyclopropyl)-amide], the IC50 at human Cat L came to 2690 nM; against human Cathepsin S, 6.24 nM.
On the same counts, the results for `N#CC1(NC(=O)[C@@H]2C[C@@H](S(=O)(=O)c3ncccc3C(F)(F)F)CN2C(=O)C2(c3ncc(Cl)cc3F)CC2)CC1` [Example 25, (2S,4R)-1-[1-(5-Chloro-3-fluoro-pyridin-2-yl)-cyclopropanecarbonyl]-4-(3-trifluoromethyl-pyridine-2-sulfonyl)-pyrrolidine-2-carboxylic acid (1-cyano-cyclopropyl)-amide] are 13200 nM and 3.21 nM.
In the same order, the values of `C[C@H](Oc1ccc(S(=O)(=O)[C@@H]2C[C@@H](C(=O)NC3(C#N)CC3)N(C(=O)C3(c4ncc(Cl)cc4F)CC3)C2)c(Cl)c1)C(F)(F)F` [Example 27, (2S,4R)-1-(1-(5-chloro-3-fluoropyridin-2-yl)cyclopropanecarbonyl)-4-(2-chloro-4-((S)-1,1,1-trifluoropropan-2-yloxy)phenylsulfonyl)-N-(1-cyanocyclopropyl)pyrrolidine-2-carboxamide] are 90 nM and 1.6 nM.
In the same order, the values of `N#CC1(NC(=O)[C@@H]2C[C@@H](S(=O)(=O)c3cc(C(F)(F)F)ccc3Cl)CN2C(=O)C2(c3ccc(Cl)cn3)CC2)CC1` [Example 29, (2S,4R)-1-[1-(5-Chloro-pyridin-2-yl)-cyclopropanecarbonyl]-4-(2-chloro-5-trifluoromethyl-benzenesulfonyl)-pyrrolidine-2-carboxylic acid (1-cyano-cyclopropyl)-amide] are 362 nM and 0.618 nM.
